Measurements from patent EP0777471B1, “INHIBITION OF LEUKOTRIENE BIOSYNTHESIS WITH UREA DERIVATIVES” (MINNESOTA MINING AND MANUFACTURING COMPANY, priority 1994, dated 1996).

Key:
5-lipoxygenase = target: T1, 5-lipoxygenase (Homo sapiens, UniProt P09917); experiment: 5-Lipoxygenase inhibition in human leukocytes (A23187-stimulated, LTC4 radioimmunoassay); assay type: cell-based; details: human leukocytes, A23187 Calcium Ionophore, LTC4 formed; read-out: IC50
T1 construct: Whole human blood is collected by venipuncture into EDTA; endogenous in cells; host or cells: leukocytes isolated from whole human blood (dextran sedimentation, hypotonic lysis)
T1 sequence (P09917 1-674): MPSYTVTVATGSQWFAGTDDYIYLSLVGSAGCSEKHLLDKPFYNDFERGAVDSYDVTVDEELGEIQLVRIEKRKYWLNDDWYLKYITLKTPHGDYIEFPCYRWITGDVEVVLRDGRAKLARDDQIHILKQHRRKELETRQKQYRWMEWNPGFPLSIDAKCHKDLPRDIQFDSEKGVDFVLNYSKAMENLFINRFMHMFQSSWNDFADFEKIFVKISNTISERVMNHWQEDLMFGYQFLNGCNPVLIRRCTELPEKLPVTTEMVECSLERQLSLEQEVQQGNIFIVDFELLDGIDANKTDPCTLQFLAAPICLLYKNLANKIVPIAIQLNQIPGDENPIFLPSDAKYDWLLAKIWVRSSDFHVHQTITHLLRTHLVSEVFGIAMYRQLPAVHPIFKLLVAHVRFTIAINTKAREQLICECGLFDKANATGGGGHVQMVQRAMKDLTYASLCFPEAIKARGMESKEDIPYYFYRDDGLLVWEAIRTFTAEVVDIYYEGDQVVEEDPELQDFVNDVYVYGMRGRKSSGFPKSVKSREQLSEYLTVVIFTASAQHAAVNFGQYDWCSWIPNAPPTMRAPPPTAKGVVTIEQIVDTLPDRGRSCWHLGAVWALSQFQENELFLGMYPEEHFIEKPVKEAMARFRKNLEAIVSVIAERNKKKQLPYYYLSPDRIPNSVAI
Procedure: The test method described below measures the ability of compounds to inhibit 5-lipoxygenase activity in human leukocytes.
Whole human blood is collected by venipuncture into EDTA (1.4 mL of 0.25M per 60 mL of whole blood). The red blood cells are sedimented with a 6% dextran/0.9% sodium chloride solution at a ratio of 25 mL whole blood to 15 mL dextran solution. The blood/dextran combination is mixed by inversion and the red blood cells are allowed to settle out for 45 minutes at ambient temperature. The plasma/dextran supernatant is removed then centrifuged at ambient temperature at 3000 rpm for 10 minutes. The plasma/dextran supernatant is removed and the cells are resuspended in 10 mL of the plasma/dextran solution. […] The pellet is then resuspended into Tris buffer containing 1 mM calcium chloride to provide approximately 1.0 X 10^7 cells/mL.
Compounds are dissolved in dimethyl sulfoxide. […] Each concentration is tested in duplicate.
A 15 µL portion of Tris buffer containing 1 mM calcium chloride is added to each well of a 96 well microtiter plate. A 1 µL portion of drug solution or vehicle (dimethyl sulfoxide) is added to each well followed by the addition of an 75 µL portion of the cell suspension. The plates are gently mixed then allowed to stand at ambient temperature for 10 minutes. A 10 µL portion of 30 µM A23187 Calcium Ionophore (prepared by dissolving the ionophore in DMSO and then diluting 1:80 into the Tris buffer) is added to each well except the wells that contain the blanks (The blank wells measure the level of LTC4 production in the absence of A23187.). The plates are gently mixed then incubated at 37°C for 10 minutes.
Following incubation the plates are centrifuged at 2000 rpm for 1.5 minutes and the supernatant is removed as quickly as possible to stop the reaction. The supernatants are frozen at -20°C until they are assayed.
The supernatants are assayed for the presence of Leukotriene C4 by radioimmunoassay which is performed according to the manufacturer's (Advanced Magnetics; Cambridge, MA) instructions.

[1] = system: production of Leukotriene C4 in mouse peritoneal macrophages; experiment: In vitro mouse peritoneal macrophage Leukotriene C4 inhibition (zymosan-stimulated, LTC4 radioimmunoassay); assay type: cell-based; details: Zymosan 50 µg/mL
How it was run: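 Adherent peritoneal macrophages from female CD-1 mice were preincubated 15 minutes at 37°C with compound (10, 1 and 0.1 µM, duplicate; DMSO). They were then stimulated with 50 µg/mL zymosan for 1 to 2 hours. Leukotriene C4 released into the medium was measured by radioimmunoassay.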

[2] = system: production of Leukotriene B4; experiment: Rat ex vivo Leukotriene B4 inhibition (oral dosing, blood challenged with A23187); assay type: in vivo, Rats; details: two hours post dose
How it was run: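 Male CD rats (250 g, non-fasted) dosed orally with compound in PEG 400, 5 rats/group; blood drawn by cardiac puncture before and 2 h after dosing. Heparinized blood challenged with A23187 calcium ionophore, 30 min at 37°C; plasma LTB4 measured by radioimmunoassay. % inhibition = post-dose vs pre-dose LTB4 level.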

SMILES	IC50 (5-lipoxygenase)	IC50 [1]	%I ([2]; 20 mg/Kg)	%I ([2]; 50 mg/Kg)	%I ([2]; 25 mg/Kg)
CCN(O)C(=O)Nc1ccccc1 [Compound 43, 1-ethyl-1-hydroxy-3-phenylurea]	0.03 µM	0.9 µM	12%	16%	
CSc1cccc(NC(=O)NO)c1 [Compound 34, 1-hydroxy-3-[3-(methylthio)phenyl]urea]	0.46 µM	> 10 µM			-2.9%
